Results as given in US20180104361A1, “DYE MOLECULE AND DYE PREPARATIONS, IN PARTICULAR FOR USE IN SURGICAL METHODS OF OPHTHALMIC SURGERY AND FOR DYEING PROTEINS” (AL.CHI.MI.A. S.R.L., priority 2015, published 2018).

Key:
egg white albumin = target: T1, egg white albumin (Gallus gallus, UniProt P01012); assay: Affinity test by circular dichroism (CD) titration with albumin; format: binding; conditions: dye preparation in Ficoll 4% in a phosphate buffer (sterilised)
T1 construct: from tissue; host or cells: egg white
T1 sequence (P01012 1-386): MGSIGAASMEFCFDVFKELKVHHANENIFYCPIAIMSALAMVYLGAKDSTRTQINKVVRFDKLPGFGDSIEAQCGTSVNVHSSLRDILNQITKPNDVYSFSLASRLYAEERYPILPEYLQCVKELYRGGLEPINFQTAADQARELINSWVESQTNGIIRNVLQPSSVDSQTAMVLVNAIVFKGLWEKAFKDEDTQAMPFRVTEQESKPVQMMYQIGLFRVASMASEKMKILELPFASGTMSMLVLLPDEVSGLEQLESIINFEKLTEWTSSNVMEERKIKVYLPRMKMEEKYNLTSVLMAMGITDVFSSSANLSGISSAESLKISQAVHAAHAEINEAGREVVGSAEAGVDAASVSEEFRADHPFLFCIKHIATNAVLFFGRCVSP
Description: In fact, even in this sector, one of the most used dyes today is BBG. However, the Applicant has realised that although it can dye proteins, BBG actually has a relatively low affinity with the self-same proteins. […] It should be noticed that, to carry out the tests, the commercial BBG with a purity of 80% was preliminarily purified and the CD spectra were measured in the 800-400 nm region in the presence of increasing quantities of albumin. Finally, in the known way, the value of the association constant was determined using a non-linear regression of the intensity of the dichroic signal expressed in ΔA (AL-AR, where AL and AR respectively indicate the absorbency of the preparation as regards the two circularly polarized light waves used for the circular dichroism study, the left wave and the right wave) depending on the concentration of the egg white albumin, used as a reference. However, on this point what is indicated in the subsequent Affinity Tests section should also be considered. […]
Affinity was determined by means of CD (circular dichroism) spectroscopy. The CD spectra were measured in the 800-400 nm region in the presence of increasing quantities of egg white albumin which, as is known, for analyses of this type is commonly considered to be representative of proteins in general. […]

[1] = equal to 0.03% w/v; DIN EN ISO 10993; cited from earlier work

association constant Ka (egg white albumin): approximately 60,000 M^−1
SMILES: CCOc1ccc(Nc2ccc(/C(=C3C=C/C(=[N+](/CC)Cc4cccc(S(=O)(=O)[O-])c4)C=C/3C)c3ccc(N(CC)Cc4cccc(S(=O)(=O)O)c4)cc3C)cc2)cc1 [BBG-250, Brilliant Blue G 250]
concentration at which considered not to be cytotoxic [1]: ≤ 0.3 g/I
